Source: paper PMC12040169 (PLOS Biology, 2025)

Assay: in vitro
Details: human, hela cells, % viability

SMILES | viability at 28.5 h, 10 µM [%]
CCn1c(CNC(=O)c2cn3ccc(C)cc3n2)nc2ccccc21 [CBK281394] | 91.2
CCn1c(CNC(=O)c2cn3cc(C)ccc3n2)nc2ccccc21 [CBK281395] | 89.4
O=C(Nc1ccc(Cn2cncn2)cc1)C1CC2C=CC1C21CC1 (stereo not drawn) [CBK281399] | 88.2
CCN1CC(C(=O)NCc2ccc(CN3CCCCC3)cc2)CC1=O (stereo not drawn) [CBK281400] | 87.3
CCn1cnc2cc(NC(=O)c3ccc(C)n(C)c3=O)ccc21 [CBK281402] | 106
Cc1nc(-c2ccc(NC(=O)CC(C)n3cccn3)cc2)cs1 (stereo not drawn) [CBK281403] | 98.4
N[C@@H]1CCCN(C(=O)c2ccccc2)[C@H]1c1ccccc1F [CBK281405] | 106
COc1ccc(C(C)NC(=O)c2c3c(nn2C)CCCC3)cc1F (stereo not drawn) [CBK281406] | 106
O=C(CN1CCCCCC1=O)Nc1nc(-c2ccccc2F)cs1 [CBK281408] | 104
Cc1nccn1-c1ccc(NC(=O)c2ccn(C(F)F)n2)cc1 [CBK281410] | 110
Cc1nn(C)cc1-c1cc(C(=O)Nc2ccccc2C2CC2)on1 [CBK281412] | 95.9
CC(NC(=O)c1ccc(=O)n(C)n1)c1ccc2c(c1)CCCC2 (stereo not drawn) [CBK281416] | 91.9
Cc1nn(CCC(=O)NC(C)Cc2ccccn2)c(C)c1Cl (stereo not drawn) [CBK281419] | 97.1
Cc1noc(C)c1CC(=O)NCc1ccc(CN2CCCCC2)cc1 [CBK281422] | 93.6
Cc1ccc2oc(C(=O)N3CCN(CC(=O)N(C)C)CC3)c(C)c2c1 [CBK281423] | 94.2
COc1ccc2c(c1)c(C)c(C(=O)NC(C)Cc1ccccn1)n2C (stereo not drawn) [CBK281425] | 98.6
OC(CN1CCC(Oc2ccccc2F)CC1)c1cccs1 (stereo not drawn) [CBK281433] | 95.2
Cn1nc(C(=O)NCC2(c3cccc(F)c3)CCCC2)ccc1=O [CBK281437] | 86.9
Cc1nc(C)c(CC(=O)NC(c2ccncc2)c2cccs2)s1 (stereo not drawn) [CBK281439] | 96.6
O=C(C1CC2C=CC1C21CC1)N1CCN(Cc2ccccn2)CC1 (stereo not drawn) [CBK281443] | 86.3
CCc1nccn1CCC(=O)Nc1ccc2c(c1)CCN2C(C)=O [CBK281446] | 90.9

SMILES | viability at 28.5 h, 10 µM [%]
CC(NC(=O)CN1CCCCCC1=O)c1cc2cc(Cl)ccc2o1 (stereo not drawn) [CBK281448] | 87.7
Cc1cc(C)n(Cc2cccc(C(=O)NC(C)Cc3ccccn3)c2)n1 (stereo not drawn) [CBK281449] | 102
Cc1nc2ccc(Cl)cn2c1CN1CCN(C2CCCC2)C(=O)C1 [CBK281452] | 84
Cc1nn(-c2ccc(F)cc2)c(C)c1CNC(=O)CCC1CCCO1 (stereo not drawn) [CBK281456] | 86.8
COc1ccc(CCn2cncc2-c2cnn(C)c2)cc1C [CBK281457] | 107
Cc1ccc(CS(=O)(=O)NCc2ccccc2-n2ccnc2)cc1 [CBK281462] | 96.5
c1ccc(-n2cc(-c3cncn3CCCN3CCCCC3)cn2)cc1 [CBK281465] | 92.4
Cc1noc(C)c1CC(=O)NC(C)c1nc2ccccc2s1 (stereo not drawn) [CBK281467] | 107
O=C(c1cc2c(F)cccc2[nH]1)N1CCC(Oc2cccnc2)CC1 [CBK281468] | 103
CC(=O)N1CCc2cc(NC(=O)C3CC4C=CC3C43CC3)ccc21 (stereo not drawn) [CBK281472] | 79.8
Cc1ccc(C)c(C(NC(=O)CCCn2ccnc2)c2ccncc2)c1 (stereo not drawn) [CBK281476] | 96.1
Cc1cc(S(=O)(=O)NCc2ccccc2-n2ccnc2)ccc1F [CBK281477] | 92.1
Cc1nn(C)c(C)c1CN(C(=O)C(C)Oc1cccc(F)c1)C1CC1 (stereo not drawn) [CBK281479] | 93.7
Cc1nn(C)c(C)c1CN(C(=O)C(C)Oc1ccccc1F)C1CC1 (stereo not drawn) [CBK281480] | 86.6
Cc1nn(CC(=O)NC(C)c2cccnc2)c(C)c1C (stereo not drawn) [CBK281489] | 102
c1ccc(Cn2cncc2-c2cncn2CCCN2CCCCC2)cc1 [CBK281490] | 114
Cc1nn(C)cc1-c1cncn1CCCC(C)(C)CO [CBK281492] | 86.1
CC1CCN(Cc2c(-c3cccnc3)[nH]c3cccnc23)CC1 [CBK281494] | 98.8
c1nn(C2CCCCC2)cc1-c1cncn1CCCN1CCCCC1 [CBK281495] | 97.5
CCCn1nc(C)c(-c2cncn2CCCN2CCCCC2)c1C [CBK281496] | 100
Cc1cccc(OCCn2cncc2-c2cnn(C)c2)c1C [CBK281497] | 99.5

SMILES | viability at 28.5 h, 10 µM [%]
Cc1ccc2oc(C(=O)N3CCC(Oc4cccnc4)CC3)cc2c1 [CBK281498] | 106
O=C(c1cccc(-c2ccc(F)cc2)c1)N1CC(O)C1 [CBK281499] | 100
Cc1nn(C)cc1-c1cncn1CCOc1ccc(Cl)cc1 [CBK281508] | 87.5
CCOc1ccc2c(c1)cc(C(=O)N(C)CC(F)(F)F)n2C [CBK281509] | 80.7
CC(CCc1ccc(F)cc1)NC(=O)c1cc2c([nH]c1=O)CCC2 (stereo not drawn) [CBK281512] | 91.9
CN(CCN1CCCCC1)C(=O)Cn1cnc2ccccc21 [CBK281515] | 90.6
O=C(NCc1cccc(OCC2CCCO2)c1)C1C2CCCCC21 (stereo not drawn) [CBK281517] | 94.3
Cc1c(CNCCN2CCCC2=O)c2ccccc2n1C [CBK281519] | 84.6
c1csc(CN2CCC(c3cc4nccnc4[nH]3)CC2)c1 [CBK281520] | 88.9
CNS(=O)(=O)c1ccc2c(c1)CCN2C(=O)C1C2CCCCC21 (stereo not drawn) [CBK281521] | 100
Fc1cccc(Nc2nc(C3CCNCC3)c3ccccn23)c1 [CBK281522] | 107
CCn1c(C(C)C)nc2cc(NC(=O)Cc3c(C)noc3C)ccc21 [CBK281527] | 90.3
CC(CCCc1ccccc1)NC(=O)c1cc2c([nH]c1=O)CCC2 (stereo not drawn) [CBK281528] | 87.6
CC(Cn1cncn1)C(=O)N1CCC(CCc2ccccc2F)CC1 (stereo not drawn) [CBK281529] | 96
CCn1nc(C)c(C(C)NC(=O)CC(C)n2nc(C)cc2C)c1C (stereo not drawn) [CBK281533] | 78.9
CCn1nc(C)c(C(C)NC(=O)c2ccn(C(F)F)n2)c1C (stereo not drawn) [CBK281534] | 79.8
CC(C)n1nccc1NC(=O)CCn1ccnc1-c1ccccc1 [CBK281536] | 88.3
Cc1nn(C(C)CC(=O)Nc2ccnn2C(C)C)c(C)c1Cl (stereo not drawn) [CBK281537] | 95.8
Cc1cc(C)n(C(C)CC(=O)Nc2cccc(OC(C)C)c2)n1 (stereo not drawn) [CBK281538] | 96.5
Cc1nccn1CC(=O)N1CCCC1(C)C(=O)NC1CCCC1 (stereo not drawn) [CBK281539] | 98.7
Clc1ccc(OCC2CCN(Cc3c[nH]cn3)CC2)cc1 [CBK281543] | 82.7

SMILES | viability at 28.5 h, 10 µM [%]
CC(Oc1ccccc1F)C(=O)N1CCCCC1CN(C)C (stereo not drawn) [CBK281544] | 89.5
CCCn1ncc(C(=O)N2CCc3c([nH]c4ccccc34)C2C)c1C (stereo not drawn) [CBK281546] | 98.3
CCCn1c(C)cc2cc(NC(=O)C(C)n3ccnc3)ccc21 (stereo not drawn) [CBK281547] | 85.8
CCCn1c(C)cc2cc(NC(=O)Cn3ccnc3)ccc21 [CBK281549] | 92.4
CCn1nc(C)c(C(C)NC(=O)C(C)n2cc(Cl)cn2)c1C (stereo not drawn) [CBK281550] | 89.7
CCn1cc(-c2cncn2CCN(C)C2CCCC2)cn1 [CBK281551] | 90.7
CCn1cncc1C(=O)NCC1(c2ccccc2F)CCOCC1 [CBK281555] | 90.9
CCn1cc(-c2cncn2CC(C)N2CCCCC2)cn1 (stereo not drawn) [CBK281556] | 103
Cc1nn(C(C)CC(=O)NCCN2CCC(C)CC2)c(C)c1Cl (stereo not drawn) [CBK281558] | 90.2
O=C(NCCCc1ccc(Cl)cc1)c1cc2c([nH]c1=O)CCC2 [CBK281560] | 89
CCc1cc(CNC(=O)C2CN(Cc3ccc(Cl)cc3)C2)on1 [CBK281564] | 97.8
CCn1cc(-c2cncn2CC(C)N2CCC(C)CC2)cn1 (stereo not drawn) [CBK281565] | 91.7
Cc1cc(C)n(C)c(=O)c1C(=O)NCCCc1ccc(Cl)cc1 [CBK281566] | 88.2
Cc1ccc2c(NC(=O)c3cc4c([nH]c3=O)CCC4)c(C)ccc2n1 [CBK281568] | 93
Cc1nn(CC(C)C(=O)NCCN2CCC(C)CC2)c(C)c1Cl (stereo not drawn) [CBK281570] | 94.2
Cc1nn(CCC(=O)NCCN2CCC(C)CC2)c(C)c1Cl [CBK281571] | 104
Cc1ccc(C2(CNC(=O)CCc3ccncc3)CCOCC2)cc1 [CBK281574] | 93.7
Cn1c(C(=O)NCCc2cnccn2)cc2cc(Cl)ccc21 [CBK281575] | 90.9
Cn1c(CN2CCN(C3CCCC3)C(=O)C2)nc2ccccc21 [CBK281577] | 100
Cc1nc(-c2n[nH]cc2-c2ccccc2F)sc1CCN [CBK281578] | 102
Cc1nccn1Cc1ccccc1C(=O)NCCn1ccnc1 [CBK281580] | 84.7
